Tests used:
[1] = target: T1, cardiac CPT-1 (Rattus norvegicus, UniProt Q63704); assay: Carnitine palmitoyl transferase (M-CPT-1) inhibition assay, rat heart mitochondria; type: biochemical
T1 construct: 50 μL of mitochondrial suspension, suitably diluted in Assay Buffer; from tissue; host or cells: rat heart mitochondria (Sprague-Dawley)
T1 sequence (Q63704 1-772): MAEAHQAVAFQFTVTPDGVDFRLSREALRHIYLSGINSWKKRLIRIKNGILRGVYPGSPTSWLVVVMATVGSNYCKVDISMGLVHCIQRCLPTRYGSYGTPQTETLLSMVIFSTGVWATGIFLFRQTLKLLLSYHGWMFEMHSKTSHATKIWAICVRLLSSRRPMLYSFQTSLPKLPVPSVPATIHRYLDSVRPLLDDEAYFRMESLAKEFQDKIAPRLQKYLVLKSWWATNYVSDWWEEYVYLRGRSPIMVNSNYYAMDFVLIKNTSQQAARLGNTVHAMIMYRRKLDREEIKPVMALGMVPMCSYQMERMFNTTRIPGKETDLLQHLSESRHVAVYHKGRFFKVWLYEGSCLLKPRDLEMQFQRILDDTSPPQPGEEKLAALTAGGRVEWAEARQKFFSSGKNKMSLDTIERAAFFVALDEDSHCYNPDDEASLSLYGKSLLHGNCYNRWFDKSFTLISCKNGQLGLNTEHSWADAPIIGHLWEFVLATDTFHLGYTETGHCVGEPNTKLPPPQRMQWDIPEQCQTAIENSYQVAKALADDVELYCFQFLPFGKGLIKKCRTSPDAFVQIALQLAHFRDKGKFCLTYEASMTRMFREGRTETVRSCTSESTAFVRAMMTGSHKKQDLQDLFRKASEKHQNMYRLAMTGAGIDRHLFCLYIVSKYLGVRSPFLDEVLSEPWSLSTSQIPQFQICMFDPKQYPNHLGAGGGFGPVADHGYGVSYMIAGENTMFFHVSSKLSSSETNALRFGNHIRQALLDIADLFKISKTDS
Protocol: Male Sprague-Dawley rats (8-10 weeks of age) were purchased from Charles River and maintained for 10 days under standard housing and feeding conditions. All isolation procedures were performed on ice using pre-cooled solutions and instruments. Rats (n=4 per mitochondrial isolation batch) were sacrificed by CO2 asphyxiation, and hearts were removed and rinsed in 3 changes of ice-cold phosphate buffered saline (PBS) to remove blood. Hearts were finely minced with scissors, and homogenised in 5 volumes/wt of a buffer containing 300 mM sucrose, 5 mM MOPS, 1 mM EGTA, 5 mM K2HPO4, 0.1% BSA, pH 7.4, using a teflon Potter homogenizer. The homogenate was centrifuged at 1500×g for 10 min, the supernatant was collected and centrifuged at 9800×g for 5 min, the mitochondrial pellet was washed and centrifuged twice in the same buffer, and then re-suspended in Assay Buffer (150 mM sucrose, 60 mM KCl, 25 mM Tris/HCl, 1 mM EDTA, 0.1 mM 4,4′-dithiopyridine, 1.3 mg/mL lipid-depleted BSA, pH 6.8). Mitochondrial suspensions were kept on ice and used fresh for each set of experiments. A spectrophotometric assay for M-CPT-1 was used, which measured the decrease in palmitoyl CoA concentration as it was utilised by the enzyme to produce palmitoylcarnitine, according to the following reaction: palmitoyl CoA+L-carnitine→palmitoylcarnitine+CoA The disappearance of palmitoyl CoA was monitored as a loss of UV absorbance at 324 nm. Enzyme reactions (1.0 mL final volume, in a spectrophotometer cuvette) contained: • 890 μL of Assay Buffer (see above). • 50 μL of mitochondrial suspension, suitably diluted in Assay Buffer. • 20 μL of 50-fold concentrated inhibitor in suitable vehicle, or vehicle alone. • 20 μL of 2 mM palmitoyl CoA (final concentration 40 μM). • 20 μL of 20 mM L-carnitine (final concentration 400 μM). […] Tubes were incubated at 37° C., and UV absorbance was recorded for 5 min. […] The protein concentration of the mitochondrial suspension was determined using the Bradford assay reagent. […]

[2] = Rat liver microsomal (RLM) stability assay; type: in vitro ADME; conditions: both sexes, pH 7.4, rat liver microsomes, 3 μM test compound; for microsomal CLint at 3 μM: read-out: CLint (μL/min/mg protein) RLM; for half-life at 3 μM: read-out: T½ (min) RLM
Protocol: The metabolic stability of fluoroperhexiline derivatives was measured by determination of the rate of compound disappearance when incubated in the presence of both human and rat liver microsomes. Liver microsomes are prepared from the endoplasmic reticulum of hepatocytes and are the primary source of the most important enzymes (cytochrome P450) involved in drug metabolism. Study of drug stability in the presence of liver microsomes is accepted as a valuable model permitting rapid prediction of in vivo drug stability.
Human and rat liver microsomes were obtained from a commercial source. Test compounds (3 μM) were incubated with pooled liver microsomes (male and female). Samples were incubated for a 45 minute period and removed at 5 time points and test compounds were analysed by LC-MS/MS.
Microsomes (final protein concentration 0.5 mg/mL), 0.1 M phosphate buffer pH 7.4, and test compound (final concentration 3 μM; diluted from 10 mM stock solution to give a final DMSO concentration of 0.25%) were incubated at 37° C. prior to the addition of NADPH (final concentration 1 mM) to initiate the reaction. The final incubation volume was 25 μL. A control incubation was included for each compound tested, where 0.1 M phosphate buffer pH 7.4 was added instead of NADPH. The control compounds testosterone and 7-hydroxycoumarin were included in each experiment and all incubations were performed singularly for each compound.
Each compound was incubated for 0, 5, 15, 30, and 45 minutes. The control (minus NADPH) was incubated for 45 minutes only. The reactions were stopped by the addition of 50 μL methanol containing internal standard at the appropriate time points. The incubation plates were centrifuged at 2500 rpm for 20 minutes at 4° C. to precipitate the protein.
Following protein precipitation, the sample supernatants were combined in cassettes of up to 4 compounds and analysed using standard LC-MS/MS conditions.
From a plot of the natural logarithm of the peak area ratio (i.e., the ratio of compound peak area:internal standard peak area) against time, the gradient of the line was determined. Subsequently, half-life and intrinsic clearance were calculated using the equations below:
Eliminated Rate Constant (k)=(−Gradient).
Half-Life (t1/2) (min)=0.063/k.
Intrinsic Clearance (CLint) […]=(V×0.693)/t1/2. • wherein V=Incubation Volume (μL/mg microsomal protein).

Row | IC50 [1] | microsomal CLint at 3 μM [2] | half-life at 3 μM [2] | SMILES
1 | 35 µM | 19 µL/min/mg | 72 min | FC1(F)CCC(C(CC2CCCCN2)C2CCCCC2)CC1 (mixture of isomers) [FPER-001, 2-(2-Cyclohexyl-2-(4,4-difluorocyclohexyl)ethyl)piperidine]
2 | 85 µM | 129 µL/min/mg | 11 min | FC1CCC(C(CC2CCCCN2)C2CCCCC2)CC1 (mixture of isomers) [FPER-003, 2-(2-Cyclohexyl-2-(4-fluorocyclohexyl)ethyl)piperidine]

Row | SMILES | IC50 [1] | microsomal CLint at 3 μM [2] | half-life at 3 μM [2]
3 | C1CCC(C(CC2CCCCN2)C2CCCCC2)CC1 (stereo not drawn) [Perhexiline, 2-(2,2-dicyclohexylethyl)piperidine] | 18 µM | 65 µL/min/mg | 21 min

From patent US20160102058A1, “FLUORO-PERHEXILINE COMPOUNDS AND THEIR THERAPEUTIC USE” (THE UNIVERSITY COURT OF THE UNIVERSITY OF ABERDEEN, priority 2013, published 2016)
